“And” between values parts separate entries of the source, which are not always exact repeats. Equal entries are not always repeated.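 The compound was tested at five concentrations on cells cultured in 96-well plates, with a 48-hour exposure period. The concentration for 50% growth inhibition is given as GI50. At the TGI there is no net growth.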
Columns and labels:
Experiment in all cases: growth of human tumour cells (NCI), 48 h
SR leukemia = system: SR leukemia
UO-31 renal = system: UO-31 renal
ACHN renal = system: ACHN renal
MOLT-4 leukemia = system: MOLT-4 leukemia
A498 renal = system: A498 renal
IGROV1 ovarian = system: IGROV1 ovarian
EKVX NSCLC = system: EKVX NSCLC
HT29 colon = system: HT29 colon
T-47D breast = system: T-47D breast
KM12 colon = system: KM12 colon

Structure (SMILES)	GI50 (SR leukemia)	TGI (SR leukemia) [µM]	GI50 (UO-31 renal)	TGI (UO-31 renal) [µM]	GI50 (ACHN renal)	TGI (ACHN renal) [µM]	GI50 (MOLT-4 leukemia)	TGI (MOLT-4 leukemia) [µM]	GI50 (A498 renal) [µM]	TGI (A498 renal)	GI50 (IGROV1 ovarian)	TGI (IGROV1 ovarian)	GI50 (EKVX NSCLC)	TGI (EKVX NSCLC) [µM]	GI50 (HT29 colon)	TGI (HT29 colon) [µM]	GI50 (T-47D breast)	TGI (T-47D breast) [µM]	GI50 (KM12 colon)	TGI (KM12 colon) [µM]
Clc1ccc(CO/N=C(\Cn2ccnc2)c2ccc(Cl)cc2Cl)c(Cl)c1	1.65 µM	4.29	1.34 µM	2.79	1.76 µM	3.17	2.19 µM	4.94	1.32	2.65 µM	1.92 µM	3.92 µM	1.43 µM	2.83	1.65 µM	3.33	1.77 µM	3.36	–	–
CC(C)=CCC/C(C)=C/CC/C(=C/COP(=O)(OCc1ccc([N+](=O)[O-])o1)N(C)CCCCCl)C(C)(C)C (stereo not drawn)	0.128 µM	> 100	> 23.3 µM	> 44.1	–	–	1.82 µM	> 100	0.125	2.16 µM	6.29 µM	22.5 µM	6.48 µM	22.4	12.5 µM	38.9	16.4 µM	51.5	3.63 µM	14.9
O=C(O)CCC1CCC(c2cc(F)ccc2F)(S(=O)(=O)c2ccc(Cl)cc2)CC1 (stereo not drawn)	25.5 µM and > 47.3 µM	> 100	22.7 µM and > 100 µM	> 100	56.7 µM and > 100 µM	> 100	41.2 µM and > 59.7 µM	> 100	–	67.1 µM and > 100 µM	18 µM and 80.7 µM	65 µM and > 100 µM	15.1 µM and > 68.5 µM	> 100	30.3 µM and > 100 µM	> 100	28.6 µM and > 100 µM	> 100	34.3 µM and 85.5 µM	> 100
CC(=O)OCC1OC(S[As](C)C)C(OC(C)=O)C1OC(C)=O (stereo not drawn)	0.025 µM	0.29	0.122 µM	1.02	0.215 µM	0.831	0.177 µM	0.765	0.432	3.06 µM	0.732 µM	4.06 µM	1.2 µM	9.05	–	–	0.62 µM	17.3	2 µM	13.6
COC(=O)c1c2c(c(C)[n+]([O-])c1C)C(=O)C(NCc1ccc(F)c(F)c1)=CC2=O	1.62 µM	6.24	1.94 µM	6.9	2.48 µM	7.68	2.44 µM	4.86	1.34	5.65 µM	–	–	1.84 µM	4.39	1.15 µM	7.61	1.75 µM	4.33	2.16 µM	8.15
CN1CCN(Cc2ccc(Nc3ncc(Cl)c(Nc4ccccc4S(=O)(=O)N(C)C)n3)cc2)CC1	< 0.01 µM	–	0.0387 µM	1.4	–	–	–	–	0.114	0.327 µM	0.0249 µM	1.63 µM	0.0317 µM	0.366	0.0308 µM	0.577	0.116 µM	0.965	0.0244 µM	> 100
COc1ccc(Nc2ccnc(NCCCNc3ccnc4cc(Cl)ccc34)n2)cc1	0.254 µM	0.912	0.879 µM	2.18	1.18 µM	2.42	1.45 µM	7.22	0.659	2.54 µM	1.48 µM	4.14 µM	–	–	0.393 µM	2.2	1.55 µM	3.71	1.67 µM	3.73
COc1ccc(F)cc1C(=O)c1cnc(NC2CCN(S(C)(=O)=O)CC2)nc1N	0.885 µM	> 14.8	3.69 µM	> 18.6	1.55 µM	> 21.4	2.66 µM	> 19	3.22	8.06 µM	1.84 µM	> 13.6 µM	–	–	2.86 µM	> 18.2	4.49 µM	> 22.6	2.4 µM	> 25
C=C[C@]1(C)C=C2C(=O)[C@@]3(O)OC(=O)[C@@]4(CCCC(C)(C)[C@H]34)[C@@]2(O)CC1	1.03 µM	8.5	1.31 µM	2.66	1.12 µM	2.35	1.74 µM	7.53	1.51	3.6 µM	2.16 µM	4.58 µM	–	–	2.12 µM	6.86	1.09 µM	3.49	3.42 µM	13.8
CN1CCN(Cc2ccc(NC(=O)c3cncc(C#Cc4c(N)ncc5cc(F)ccc45)c3)cc2C(F)(F)F)CC1	1.47 µM	50	1.44 µM	5.06	1.99 µM	8.84	–	–	0.839	3.99 µM	0.813 µM	3.02 µM	2.8 µM	10.2	0.276 µM	1.15	6.57 µM	20.2	0.0172 µM	0.738

Source: PubChem BioAssay (NCI)
